pEC50, pIC50: −log10 of the molar value. Where two headings read alike, the source gives them in different places.
Tests used:
[1] = system: O. gutturosa adult male worms; experiment: O. gutturosa adult worm ex vivo assay, MTT/formazan viability; assay type: cell-based, Onchocerca gutturosa; conditions: supplement, SD in brackets in the PDF table, read-out: O. gutturosa EC50 (uM) MTT viability inhibition
Outline: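 Adult male worms from naturally infected Gambian cattle were kept individually in MEM with 10% newborn calf serum at 37 °C, 5% CO2; four worms per concentration. Motility was scored 0-10 every 24 h to 120 h as a percentage of maximum, with ≥50% reduction versus untreated counted active. Afterwards, MTT (0.5 mg/mL, 30 min) formazan was read at 490 nm.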

[2] = LogD measurement (octanol-water); assay type: physicochemical
Outline: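 Human and rat liver microsomes (0.3 mg/mL) with 1 mM NADPH and 3µM substrate, 30 minutes at 37 °C in pH 7.4 phosphate/MgCl2, triplicate; LC-MS/MS percentage remaining. LogD: octanol/aqueous buffer (pH 7.4, 2.2, 6.8, 5), 24 h shaking at room temperature. Kinetic solubility: 200 µM, 2% DMSO, 24 h, filtered.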

THLE-2 cells = experiment: THLE-2 cytotoxicity assay (ATP); conditions: for pIC50: Homo sapiens; for THLE (cytotoxicity) ATP LC50: THLE-2 cell line
Outline: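 THLE-2 cells in supplemented LHC-8 medium were exposed for 24 or 72 h to final concentrations of 0.01–300 μM. Viability was read as ATP by CellTiter-Glo luminescence and normalized to DMSO vehicle. IC50 came from nonlinear regression of dose-response curves.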

[3] = system: O. gutturosa adult male worms; experiment: O. gutturosa adult worm ex vivo assay, motility; assay type: cell-based, Onchocerca gutturosa; conditions: Onchocerca gutturosa; for pEC50: read-out: O. gutturosa EC50, adult worm motility, bound stated
Outline: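 Adult male O. gutturosa from naturally infected cattle were cultured in supplemented MEM at 37 °C, 5% CO2, with four worms per concentration in serial 1-in-4 dilutions. Motility (0–10 scale) was scored every 24 h to 120 h. EC50 (geomean, n=2) for motility reduction came from 4PL fits, and viability was checked by MTT at 120 h.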

[4] = supplement, read-out: measured logD
[5] = THLE-2, 24 h, read-out: THLE IC50
[6] = read-out: O. gutturosa EC50 μM (SD), ex vivo adult worm motility reduction, SD in brackets
[7] = read-out: O. gutturosa EC50 (uM) motility inhibition, supplement, SD in brackets in the PDF table

SMILES	EC50 ([1]; Onchocerca gutturosa) [µM]	EC50 [1] [µM]	logD at 24 h ([2]; pH 7.4, read-out: logD)	logD at 24 h [2, 4]	pIC50 (THLE-2 cells; [5])	EC50 [3, 6] [µM]	EC50 [3, 7] [µM]	THLE (cytotoxicity) ATP LC50 (THLE-2 cells)	pEC50 [3]	pIC50 (THLE-2 cells; THLE-2, read-out: THLE IC50)
Cc1ccnc(-c2nsc(Nc3ncccc3C(F)(F)F)n2)c1 [Compound 26, 3-(4-Methylpyridin-2-yl)-N-(3-(trifluoromethyl)pyridin-2-yl)-1,2,4-thiadiazol-5-amine]	0.07	0.069	2.45	2.45	4.18	0.03	0.029	–	–	–
CC(=O)N(C)c1cccnc1Nc1nc(-c2ccc(OC(C)C)cn2)ns1 [Compound 47, N-(2-((3-(5-Isopropoxypyridin-2-yl)-1,2,4-thiadiazol-5-yl)amino)pyridin-3-yl)-N-methylacetamide]	1.9	–	1.62	1.62	–	1.07	–	did not exhibit significant cellular cytotoxity	–	–
Cc1cccnc1Nc1nc(-c2ccc(OC3CCN(C4CC4)CC3)cn2)ns1 [Compound 19, 3-[5-[(1-Cyclopropyl-4-piperidyl)oxy]-2-pyridyl]-N-(3-methyl-2-pyridyl)-1,2,4-thiadiazol-5-amine]	0.19	–	3.3	3.3	3.92	0.06	0.064	–	–	–
CC(C)c1ccnc(-c2nsc(Nc3ncccc3C(F)(F)F)n2)c1 [Compound 27]	0.07	0.069	2.5	2.5	–	0.01	–	–	> 7.00	–
CC(C)Oc1ccc(-c2nsc(Nc3ncccc3C(C)C)n2)nc1 [Compound 25, 3-(5-Isopropoxy-2-pyridyl)-N-(3-isopropyl-2-pyridyl)-1,2,4-thiadiazol-5-amine]	0.54	–	2.85	2.85	–	0.1	0.099	–	–	5.49
CNc1cccnc1Nc1nc(-c2ccc(OC(C)C)cn2)ns1 [Compound 30]	0.59	–	2.9	2.9	–	0.22	0.219	–	–	4.76
CC(C)Oc1ccc(-c2nsc(Nc3ncccc3N(C)C(=O)C3CC3)n2)nc1 [Compound 50, N-(2-((3-(5-Isopropoxypyridin-2-yl)-1,2,4-thiadiazol-5-yl)amino)pyridin-3-yl)-N-methylcyclopropanecarboxamide]	2.3	–	2.4	2.4	–	0.56	0.55	–	–	5.13
Cc1cccnc1Nc1nc(-c2ccc(OC3CC4(C3)CN(C3CC3)C4)cn2)ns1 [Compound 12, 3-[5-[(2-Cyclopropyl-2-azaspiro[3.3]heptan-6-yl)oxy]-2-pyridyl]-N-(3-methyl-2-pyridyl)-1,2,4-thiadiazol-5-mine]	0.03	0.033	2.1	2.1	–	0.39	0.393	–	–	5.28
CN(C)c1cccnc1Nc1nc(-c2ccc(OC3CC3)cn2)ns1 [Compound 32]	0.56	–	2.5	2.5	–	0.74	0.743	–	–	6.10
Cc1cccnc1Nc1nc(-c2ccc(OC(C)C)cn2)ns1 [Compound 10, 3-(5-Isopropoxypyridin-2-yl)-N-(3-methylpyridin-2-yl)-1,2,4-thiadiazol-5-amine]	0.01	0.013	2.88	2.88	4.42	0.06	0.055	–	> 7.00	–
CC(C)Oc1ccc(-c2nsc(Nc3ncccc3N(C)C)n2)nc1 [Compound 31, N^2-(3-(5-Isopropoxypyridin-2-yl)-1,2,4-thiadiazol-5-yl)-N3,N3-dimethylpyridine-2,3-diamine]	0.24	–	3.23	3.23	4.44	0.08	0.083	did not exhibit significant cellular cytotoxity	–	–
Cc1cccnc1Nc1nc(-c2ccc(OC3CC3)cn2)ns1 [Compound 11, 3-(5-Cyclopropoxypyridin-2-yl)-N-(3-methylpyridin-2-yl)-1,2,4-thiadiazol-5-amine]	0.02	–	3.4	3.4	< 3.70	0.11	0.106	–	–	–
CC(C)c1ccnc(-c2nsc(Nc3cc(C(F)(F)F)ccn3)n2)c1 [Compound 35, 3-(4-Isopropylpyridin-2-yl)-N-(4-(trifluoromethyl)pyridin-2-yl)-1,2,4-thiadiazol-5-amine]	0.15	–	3	3	–	0.05	–	–	–	5.64

Source: PMC9421654, “Discovery of Substituted Di(pyridin-2-yl)-1,2,4-thiadiazol-5-amines as Novel Macrofilaricidal Compounds for the Treatment of Human Filarial Infections” (Journal of Medicinal Chemistry, 2022)
